According to patent US20130225404A1, “PESTICIDAL COMBINATIONS” (SYNGENTA PARTICIPATIONS AG, priority 2010, published 2013):

Tested on: rice plants
Test: Safening of rice grown from treated seeds against clodinafop herbicide, greenhouse tray test
Type: in vivo
Settings: rice seed treatment; for Av. shoot weight: average dry shoot weight five weeks after the clodinafop treatment; for Av. plant height: determined five weeks after the clodinafop treatment
Experimental: Various batches of treated rice seeds were sown in soil contained in trays (0.0425 m^2) at a rice density of 120 kg/ha and their growth monitored in a green house (at 25° C. during the day and 23° C. during the nght). The amounts of the active ingredients, i.e. thiamethoxam (Cruiser 350FS) and N-(2-methoxybenzoyl)-4-[(methylaminocarbonyl)amino]benzene-sulfonamide (safener) used for the rice seed treatment are indicated in the table below. The trays were flooded with water three days after sowing. Nine days after sowing the rice plants were sprayed with the herbicide clodinafop in an amount equal to 100 g/ha. The average plant height and the average dry shoot weight were determined five weeks after the clodinafop treatment.
A similar procedure was performed on untreated seeds except that the clodinafop treatment was omitted (control).
The same procedure as descrbed above was repeated except that the rice plants were treated with the herbicide clodinafop fifteen days after sowing.

[1] = clodinafop 100 g/ha sprayed 9 days after sowing
[2] = clodinafop 100 g/ha sprayed 15 days after sowing

CNC(=O)Nc1ccc(S(=O)(=O)NC(=O)c2ccccc2OC)cc1 [C, N-(2-methoxybenzoyl)-4-[(methylaminocarbonyl)amino]benzene-sulfonamide]
Av. shoot weight [1]: 300 mg
Av. plant height [1]: 30 cm
Av. shoot weight [2]: 510 mg
Av. plant height [2]: 40 cm

CNC(=O)Nc1ccc(S(=O)(=O)NC(=O)c2ccccc2OC)cc1 [A, N-(2-methoxybenzoyl)-4-[(methylaminocarbonyl)amino]benzene-sulfonamide]
Av. shoot weight [1]: 230 mg
Av. plant height [1]: 24 cm
Av. shoot weight [2]: 400 mg
Av. plant height [2]: 35 cm
